Patent US20220251095A1, “TRICYCLIC COMPOUND, PREPARATION METHOD THEREFOR AND USE THEREOF” (SHANGHAI JEMINCARE PHARMACEUTICALS CO., LTD., priority 2019, published 2022)

Experiments:
[1] = target: T1, coagulation factor XIa protease (FXIa) (Homo sapiens, UniProt P03951); test: Inhibition of coagulation factor XIa (FXIa), chromogenic substrate, absorbance at 405; assay type: biochemical; settings: FXIa 0.05 μg/mL, substrate 2.5 mM, 37° C. 15 minutes
T1 construct: purchased Abcam ab62411
Method: Coagulation factor XIa protease (FXIa) decomposed the specific substrate to produce yellow p-nitroaniline (pNA), pNA had strong absorption at 405 nm. The inhibitory activity of the compounds on coagulation factor XIa was determined by assaying the absorbance of the compounds at […].
The coagulation factor XIa protease used in the experiment was purchased from Abcam Company, Item No. ab62411; the coagulation factor XIa-specific substrate was purchased from HYPHEN BioMed, Item No. Biophen cs-21 (66); tris-HCl was purchased from Invitrogen, Item No. 15567-027; NaCl was purchased from ABCONE, Item No. S39168; Twain 20 was purchased from Amersco, Item No. 0777-1L.
(§1) The compounds were dissolved in 100% DMSO, 20 mM, and stored at room temperature in a nitrogen cabinet.
a. 20 mM of the tested compound was diluted to 2 mM using 100% DMSO, and the reference compound was diluted to 0.4 mM; the compound was continuously diluted with a 3-fold gradient at 10 concentration points using a Bravo liquid workstation.
b. The ECHO liquid workstation was used to transfer 10 nL of compound to the corresponding 384-well experimental plate with double replicate wells; the final concentrations of compound reactions were 1000, 333.3, 111.1, 37.0, 12.3, 4.1, 1.37, 0.46, 0.15, and 0.05 nM. The final concentrations of reference compounds were 200, 66.7, 22.2, 7.4, 2.47, 0.82, 0.27, 0.09, 0.03, 0.01 nM.
c. 10 nL DMSO and 10 nL 0.4 mM reference compounds were transferred to high signal control pores and low signal control pores respectively.
d. 0.1 μg/mL FXIa enzyme solution was prepared with buffer solution, and 10 μL enzyme solution was added to 384-well experimental plate, 5 mM substrate solution was prepared using buffer solution, and […] substrate solution was added to a 384-well experimental plate. The final concentration of FXIa was 0.05 μg/mL and the final concentration of the substrate was 2.5 mM.
e. The 384-hole experimental plate was centrifuged and incubated at 37° C. for 15 minutes.
f. The absorbance was measured at 405 nm using EnVision.

[2] = tested on: human plasma; test: Anticoagulant effect on human blood in vitro (APTT clotting time, CT2.0); settings: final concentration of compound corresponding to aPTT of the 2-fold blank control
Method: Activated partial thromboplastin time (APTT) measurement reagent was mixed with plasma and the reaction was carried out continuously resulting in a change in optical density up to the clotting point, and the clotting time (CT) was measured by optical turbidimetry using a semi-automatic coagulation analyzer. The in vitro anticoagulant activity of compounds on human blood was determined by detecting the clotting time of plasma treated with different concentrations of compounds, and the corresponding concentration of compounds prolonging clotting time was calculated.
Human plasma used in the experiment was purchased from HD Biosciences (Shanghai) Co., Ltd.; Activated partial thromboplastin time determination kit was purchased from Taizhou Zhongqin Shidi Biotechnology Co., Ltd., Item No. SS00220005.
as §1
a. The NaCl reagent in the kit was incubated half an hour in advance, and the APTT reagent was balanced to room temperature.
b. The compound was continuously diluted at 14 concentration points using a Bravo liquid workstation with a 2-fold gradient.
c. 0.75 μL of the compound was added to the measuring cup, double-replicate wells; 50 μL of plasma was added and 50 μL of APTT reagent was added, the mixture was mixed well and put into coagulation analyzer for incubation at 37° C. for 3 minutes.
d. APTT assay was started, 50 μL of NaCl was added to start the reaction, and the clotting time was counted.
e. Control clotting time was measured using 100% DMSO instead of the compound, and the final concentration of DMSO was 0.5%.
Data were curve-fitted using Graphpad Prism to calculate CT2.0, the final concentration of compound corresponding to aPTT of the 2-fold blank control was calculated.

T1 sequence (P03951 388-625 limits assumed): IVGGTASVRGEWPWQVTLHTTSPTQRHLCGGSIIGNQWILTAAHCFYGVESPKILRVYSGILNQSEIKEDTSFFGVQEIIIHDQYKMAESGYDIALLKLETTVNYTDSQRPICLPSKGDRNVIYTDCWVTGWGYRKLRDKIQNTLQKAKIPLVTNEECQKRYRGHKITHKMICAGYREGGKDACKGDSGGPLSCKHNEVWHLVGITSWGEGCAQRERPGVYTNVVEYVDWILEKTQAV
T1 sequence (P03951 19-387 partner limits assumed): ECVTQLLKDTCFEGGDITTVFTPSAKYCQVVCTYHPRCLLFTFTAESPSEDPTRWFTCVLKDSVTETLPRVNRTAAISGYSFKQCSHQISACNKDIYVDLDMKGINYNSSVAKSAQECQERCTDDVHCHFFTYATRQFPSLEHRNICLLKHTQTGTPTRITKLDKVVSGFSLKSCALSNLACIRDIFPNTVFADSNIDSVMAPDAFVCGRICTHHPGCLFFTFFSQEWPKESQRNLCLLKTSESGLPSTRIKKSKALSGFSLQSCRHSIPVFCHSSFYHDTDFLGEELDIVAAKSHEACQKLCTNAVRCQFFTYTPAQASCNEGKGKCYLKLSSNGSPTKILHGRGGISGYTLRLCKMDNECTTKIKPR

IC50 [1] [nM]	Structure (SMILES)	CT2.0 [2] [µM]
6.5	Nc1ccc(-c2cnc([C@@H]3[C@H]4C[C@H]4c4cc(-c5cc(Cl)ccc5-n5cnnn5)cc(=O)n43)[nH]2)c(F)n1 [Embodiment 1]	1.72
6.7	Nc1ccc(-c2[nH]c([C@@H]3[C@H]4C[C@H]4c4cc(-c5cc(Cl)ccc5-n5cnnn5)cc(=O)n43)nc2F)c(F)n1 [Embodiment 2]	0.55
2.84	Nc1ccc(-c2[nH]c([C@@H]3[C@H]4C[C@H]4c4nc(-c5cc(Cl)ccc5-n5cnnn5)cc(=O)n43)nc2F)c(F)n1 [Embodiment 14]	0.55
0.82	Nc1n[nH]c2cc(-c3cnc([C@@H]4[C@H]5C[C@H]5c5cc(-c6cc(Cl)ccc6-n6cnnn6)cc(=O)n54)[nH]3)ccc12 [Embodiment 15]	0.47
4.74	O=C1CCc2cc(-c3cnc([C@@H]4[C@H]5C[C@H]5c5cc(-c6cc(Cl)ccc6-n6cnnn6)cc(=O)n54)[nH]3)ccc2N1 [Embodiment 16]	0.63
0.83	O=C1CCc2cc(-c3[nH]c([C@@H]4[C@H]5C[C@H]5c5cc(-c6cc(Cl)ccc6-n6cnnn6)cc(=O)n54)nc3F)ccc2N1 [Embodiment 17]	0.54
6.3	O=C1COc2cc(-c3cnc([C@@H]4[C@H]5C[C@H]5c5cc(-c6cc(Cl)ccc6-n6cnnn6)cc(=O)n54)[nH]3)ccc2N1 [Embodiment 20]	0.88
8.65	Nc1ccc(-c2cnc([C@@H]3[C@H]4C[C@H]4c4cc(-c5cc(Cl)ccc5-n5cnnn5)cc(=O)n43)[nH]2)c(F)c1F [Embodiment 24]	0.90
0.82	Nc1noc2cc(-c3cnc([C@@H]4[C@H]5C[C@H]5c5cc(-c6cc(Cl)ccc6-n6cnnn6)cc(=O)n54)[nH]3)ccc12 [Embodiment 28]	0.07
0.5	Nc1noc2cc(-c3[nH]c([C@@H]4[C@H]5C[C@H]5c5cc(-c6cc(Cl)ccc6-n6cnnn6)cc(=O)n54)nc3F)ccc12 [Embodiment 29]	0.37
4.63	O=C1CCc2cc(-c3[nH]c([C@@H]4[C@H]5C[C@H]5c5cc(-c6cc(Cl)ccc6-n6cc(Cl)nn6)cc(=O)n54)nc3F)ccc2N1 [Embodiment 31]	2.38
2.72	Nc1n[nH]c2cc(-c3cnc([C@@H]4[C@H]5C[C@H]5c5cc(-c6cc(Cl)ccc6-n6cc(Cl)nn6)cc(=O)n54)[nH]3)ccc12 [Embodiment 32]	0.26
0.85	Nc1n[nH]c2cc(-c3[nH]c([C@@H]4[C@H]5C[C@H]5c5cc(-c6cc(Cl)ccc6-n6cc(Cl)nn6)cc(=O)n54)nc3F)ccc12 [Embodiment 33]	0.69
11.9	Cn1nc(N)c2ccc(-c3cnc([C@@H]4[C@H]5C[C@H]5c5cc(-c6cc(Cl)ccc6-n6cnnn6)cc(=O)n54)[nH]3)cc21 [Embodiment 34]	0.58
8.71	O=c1cc(-c2cc(Cl)ccc2-n2cnnn2)cc2n1[C@H](c1ncc(-c3ccc4c(c3)CCc3cn[nH]c3-4)[nH]1)[C@H]1C[C@@H]21 [Embodiment 42]	1.08
3.93	Nc1ccc(-c2[nH]c([C@@H]3[C@H]4C[C@H]4c4cc(-c5cc(Cl)ccc5-n5cnnn5)cc(=O)n43)nc2F)c(F)c1F [Embodiment 48]	3.65
6.4	Nc1ccc(-c2[nH]c([C@@H]3[C@H]4C[C@H]4c4cc(-c5cc(Cl)ccc5-n5cnnn5)cc(=O)n43)nc2F)cc1OC(F)(F)F [Embodiment 49]	6.86
7.02	Nc1ccc(-c2[nH]c([C@@H]3[C@H]4C[C@H]4c4cc(-c5cc(Cl)ccc5-n5cnnn5)cc(=O)n43)nc2F)cc1C(F)(F)F [Embodiment 50]	3.16

IC50 [1] [nM]	Structure (SMILES)	CT2.0 [2] [µM]
5.18	O=c1cnc2cc(-c3cnc([C@@H]4[C@H]5C[C@H]5c5cc(-c6cc(Cl)ccc6-n6cnnn6)cc(=O)n54)[nH]3)ccc2[nH]1 [Embodiment 55]	0.67
8.32	O=C1Nc2ccc(-c3cnc([C@@H]4[C@H]5C[C@H]5c5cc(-c6cc(Cl)ccc6-n6cnnn6)cc(=O)n54)[nH]3)cc2CO1 [Embodiment 57]	0.54
3.25	O=c1[nH]c2ccc(-c3[nH]c([C@@H]4[C@H]5C[C@H]5c5cc(-c6cc(Cl)ccc6-n6cnnn6)cc(=O)n54)nc3F)cc2cc1C(F)(F)F [Embodiment 58]	1.21
1.41	CC1Cc2cc(-c3[nH]c([C@@H]4[C@H]5C[C@H]5c5cc(-c6cc(Cl)ccc6-n6cnnn6)cc(=O)n54)nc3F)ccc2NC1=O (stereo partly shown) [Embodiment 59]	0.84
6.76	O=C1COc2cc(-c3[nH]c([C@@H]4[C@H]5C[C@H]5c5cc(-c6cc(Cl)ccc6-n6cc(Cl)nn6)cc(=O)n54)nc3F)ccc2N1 [Embodiment 62]	2.32
4.78	O=C1Nc2ccc(-c3[nH]c([C@@H]4[C@H]5C[C@H]5c5cc(-c6cc(Cl)ccc6-n6cc(Cl)nn6)cc(=O)n54)nc3F)cc2CO1 [Embodiment 64]	1.11
3.54	Nc1noc2c(F)c(-c3cnc([C@@H]4[C@H]5C[C@H]5c5cc(-c6cc(Cl)ccc6-n6cc(Cl)nn6)cc(=O)n54)[nH]3)ccc12 [Embodiment 68]	0.65
0.36	Nc1noc2cc(-c3[nH]c([C@@H]4[C@H]5C[C@H]5c5cc(-c6cc(Cl)ccc6-n6cc(Cl)nn6)cc(=O)n54)nc3F)ccc12 [Embodiment 69]	0.86
2.16	CNc1noc2cc(-c3[nH]c([C@@H]4[C@H]5C[C@H]5c5cc(-c6cc(Cl)ccc6-n6cc(Cl)nn6)cc(=O)n54)nc3F)ccc12 [Embodiment 70]	1.32
5.27	Cn1nc(N)c2ccc(-c3[nH]c([C@@H]4[C@H]5C[C@H]5c5cc(-c6cc(Cl)ccc6-n6cc(Cl)nn6)cc(=O)n54)nc3F)cc21 [Embodiment 75]	1.42
0.76	Cn1nc(N)c2ccc(-c3[nH]c([C@@H]4[C@H]5C[C@H]5c5cc(-c6cc(Cl)ccc6-n6cnnn6)cc(=O)n54)nc3F)cc21 [Embodiment 76]	0.43
3.18	O=C1CCc2cc(-c3[nH]c([C@@H]4[C@H]5C[C@H]5c5cc(-c6cc(Cl)ccc6-n6cc(Cl)nn6)cc(=O)n54)nc3Cl)ccc2N1 [Embodiment 77]	0.82
1.41	Nc1n[nH]c2cc(-c3[nH]c([C@@H]4[C@H]5C[C@H]5c5cc(-c6cc(Cl)ccc6-n6cc(C(F)(F)F)nn6)cc(=O)n54)nc3F)ccc12 [Embodiment 78]	0.86
1.02	Nc1noc2cc(-c3[nH]c([C@@H]4[C@H]5C[C@H]5c5cc(-c6cc(Cl)ccc6-n6cc(C(F)(F)F)nn6)cc(=O)n54)nc3F)ccc12 [Embodiment 79]	0.72
6.36	O=C1CCc2cc(-c3[nH]c([C@@H]4[C@H]5C[C@H]5c5cc(-c6cc(Cl)ccc6-n6cc(C(F)(F)F)nn6)cc(=O)n54)nc3Cl)ccc2N1 [Embodiment 80]	3.50
5.37	O=C1CCc2cc(-c3[nH]c([C@@H]4[C@H]5C[C@H]5c5cc(-c6cc(Cl)ccc6-n6cc(C(F)(F)F)nn6)cc(=O)n54)nc3F)ccc2N1 [Embodiment 81]	2.28
4.84	Nc1n[nH]c2cc(-c3cnc([C@@H]4[C@H]5C[C@H]5c5cc(-c6cc(Cl)ccc6-n6cc(C(F)F)nn6)cc(=O)n54)[nH]3)ccc12 [Embodiment 82]	1.04
